In patent publication US11053190B2, “Alpha-aminoamide derivative compound and pharmaceutical composition comprising same” (NEUROBIOGEN CO., LTD., priority 2014, dated 2021):
Read-outs that look alike come from different tables or passages of the source.

Assays:
[1] = target: T1, human-derived monoamine oxidase B (Homo sapiens, UniProt P27338); assay: Effect of inhibiting activity of monoamine oxidase B (MAO-B assay); type: biochemical; details: Amplex Red, benzylamine substrate
T1 sequence (P27338 1-520): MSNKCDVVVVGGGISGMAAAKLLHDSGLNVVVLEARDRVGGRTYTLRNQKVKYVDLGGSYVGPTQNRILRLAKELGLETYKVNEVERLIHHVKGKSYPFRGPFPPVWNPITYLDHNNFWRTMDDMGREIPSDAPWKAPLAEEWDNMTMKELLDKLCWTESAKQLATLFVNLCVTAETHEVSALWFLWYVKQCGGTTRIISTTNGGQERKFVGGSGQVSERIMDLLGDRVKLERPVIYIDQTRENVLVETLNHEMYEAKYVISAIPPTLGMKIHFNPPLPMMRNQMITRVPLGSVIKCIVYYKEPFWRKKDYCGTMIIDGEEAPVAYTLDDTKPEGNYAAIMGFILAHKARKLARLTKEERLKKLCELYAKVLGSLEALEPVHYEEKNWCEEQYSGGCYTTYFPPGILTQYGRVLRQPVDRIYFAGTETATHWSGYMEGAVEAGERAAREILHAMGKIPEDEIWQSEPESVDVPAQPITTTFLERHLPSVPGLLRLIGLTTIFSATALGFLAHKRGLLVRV

MAO-A = target: T2, MAO-A (Homo sapiens, UniProt P21397); assay: MAO-A inhibition (Table 1); type: biochemical
T2 sequence (P21397 1-527): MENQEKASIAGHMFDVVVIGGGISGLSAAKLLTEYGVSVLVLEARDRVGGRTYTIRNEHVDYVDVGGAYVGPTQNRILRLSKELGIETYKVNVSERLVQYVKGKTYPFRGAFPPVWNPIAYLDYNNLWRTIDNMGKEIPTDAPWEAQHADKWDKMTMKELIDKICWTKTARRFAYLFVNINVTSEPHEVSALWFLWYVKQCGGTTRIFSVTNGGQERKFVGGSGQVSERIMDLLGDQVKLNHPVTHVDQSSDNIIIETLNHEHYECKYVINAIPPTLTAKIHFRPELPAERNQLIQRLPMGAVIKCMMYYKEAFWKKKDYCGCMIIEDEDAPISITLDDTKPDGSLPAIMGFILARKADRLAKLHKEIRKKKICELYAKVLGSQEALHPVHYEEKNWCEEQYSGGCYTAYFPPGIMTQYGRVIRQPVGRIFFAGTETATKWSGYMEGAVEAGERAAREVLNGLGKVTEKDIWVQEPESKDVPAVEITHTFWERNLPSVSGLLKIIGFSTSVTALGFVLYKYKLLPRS

APP/PS1 mouse [2] = details: Jo et al., Nature Medicine 2014, cited from earlier work
[3] = tested on: DGGCs (dentate gyrus granule cells) of the hippocampus; assay: Inhibition of channel excitability, electrophysiology; type: cell-based; details: FIG. 4
Source text: In order to investigate the channel inhibitory effect, inhibition of channel excitability was investigated electrophysiologically using DGGCs (dentate gyrus granule cells) of the hippocampus.

[4] = tested on: dopaminergic neurons in the substantia nigra and the corpus striatum; assay: MPTP mouse model of Parkinson's disease, TH (tyrosine hydroxylase) immunohistochemistry; type: in vivo; details: for dopaminergic neuron survivability (TH expression), pre-treatment: from one day before MPTP 20 mg/kg i.p., FIG. 2a
obesity model mouse = assay: HFD (high-fat diet) mouse model of obesity; type: in vivo
Procedure: 7-week-old mice were divided into 2 groups and were given a normal diet (white, chow) and a high-fat diet (blue, HFD), respectively, for 8 weeks.
The total calorie provided to the normal diet mice and the high-fat diet mice was set to be equal. The average body weight of the normal diet group was measured to be […] at 8 weeks, with about 20% increase from the initial weight of […]. In contrast, the average body weight of the high-fat diet almost doubled to about […].
In addition to the increase in reactive astrocytes, overproduction of γ-aminobutyric acid (GABA) was also detected.

[5] = target: T1, human-derived monoamine oxidase B; assay: Confirmation of reversible inhibitory effect (washing in centrifugal filter); type: biochemical
APP/PS1 mouse [6] = assay: APP/PS1 mouse model of Alzheimer's disease, spike probability of dentate gyrus granule cells; type: in vivo; details: 2 weeks in drinking water
[7] = 10 mg/kg oral, treated from day 3 after MPTP, FIG. 2b
[8] = administration for 30 days, FIG. 2c

| SMILES | IC50 [1] | IC50 (MAO-A) | other results |
| --- | --- | --- | --- |
| C[C@H](NCc1ccc(-c2ccc(F)cc2)cc1)C(N)=O [Example 3, (S)-2-(((4′-fluorobiphenyl-4-yl)methyl)amino) propanamide methanesulfonate] | > 10 µM |  |  |
| C[C@H](NCc1ccc(-c2ccc(OC(F)(F)F)cc2)cc1)C(N)=O [Example 11, (S)-2-(((4′-trifluoromethoxybiphenyl-4-yl)methyl)amino)propanamide methanesulfonate] | 0.098 µM | > 100 µM |  |
| NC(=O)CNCc1ccc(-c2ccc(C(F)(F)F)cc2)cc1 [Example 16, (R)-2-(((4′-trifluoromethylbiphenyl-4-yl)methyl)amino)acetamide methanesulfonate] | 0.126 µM | > 100 µM |  |
| C[C@H](NCc1ccc(-c2cccc(Cl)c2)cc1)C(N)=O [Example 5, (S)-2-(((3′-chlorobiphenyl-4-yl)methyl)amino) propanamide methanesulfonate] | 0.442 µM | > 100 µM |  |
| COc1cccc(-c2ccc(CN[C@@H](C)C(N)=O)cc2)c1 [Example 12, (S)-2-(((3′-methoxybiphenyl-4-yl)methyl)amino)propanamide methanesulfonate] | 3.33 µM | > 100 µM |  |
| C#CCN(C)[C@H](C)Cc1ccccc1 [Selegiline] |  |  | efficacy in the Alzheimer's disease model after 2 weeks (APP/PS1 mouse [2]): the efficacy decreases greatly; efficacy in the Alzheimer's disease model after 4 weeks (APP/PS1 mouse [2]; after 4 weeks): no efficacy is observed; efficacy in the Alzheimer's disease model, initially (APP/PS1 mouse [2]; initial): excellent efficacy initially |
| C[C@H](NCc1ccc(-c2ccccc2Cl)cc1)C(N)=O [Example 4, (S)-2-(((2′-chlorobiphenyl-4-yl)methyl)amino) propanamide methanesulfonate] | > 10 µM | > 100 µM |  |
| C[C@H](NCc1ccc(OCc2cccc(F)c2)cc1)C(N)=O [S-Safinamide, Safinamide, reference compound] |  |  | efficacy in the Alzheimer's disease model after 2 weeks (APP/PS1 mouse [2]): maintains excellent efficacy; inhibition at 10 µM ([3]; 10 μM, read-out: excitability inhibitory effect): ~40%; dopaminergic neuron survivability (TH expression), pre-treatment ([4]; 10 mg/kg oral): dopaminergic neuron survivability comparable to that of the control group; death of dopaminergic neurons, post-treatment [4, 7]: significantly decreased death of the neurons; protection of dopaminergic neurons in the corpus striatum, 30-day administration [4, 8]: slightly lower efficacy |
| C[C@@H](NCc1ccc(-c2ccc(C(F)(F)F)cc2)cc1)C(N)=O [Example 15, (R)-2-(((4′-trifluoromethylbiphenyl-4-yl)methyl)amino)propanamide methanesulfonate] |  | > 100 µM |  |
| C[C@H](NCc1ccc(-c2ccc(C(F)(F)F)cc2)cc1)C(N)=O [Example 9, (S)-2-(((4′-trifluoromethylbiphenyl-4-yl)methyl)amino) propanamide methanesulfonate] |  | > 500 µM | body weight increase due to high-fat diet (obesity model mouse; 10 mg/kg/day and 100 mg/kg/day groups, FIG. 8): inhibited body weight increase due to the intake of the high-fat diet in a concentration-dependent manner; amount of food intake (obesity model mouse; high-fat diet mice, FIG. 8): no difference in the amount of food intake; GFAP (biomarker for reactive astrocytes) in the arcuate nucleus (obesity model mouse; high-fat diet mice, FIG. 9): Remarkable decrease in GFAP; overproduction of GABA in the arcuate nucleus (obesity model mouse; high-fat diet mice, FIG. 9): effective inhibition of the overproduction of GABA; excitability inhibitory effect ([3]; 10 μM): almost no inhibitory effect; excitability inhibitory effect ([3]; 50 μM): lower inhibitory effect than safinamide; Reversibility ([5]; 1 μM): Reversible; Recovered MAO-B activity ([5]; 1 μM, after washing): >85%; inhibition at 1 µM ([5]; after centrifugal filter and washing with buffer (B), read-out: B. MAO-B inhibition effect): < 15%; inhibition at 1 µM ([5]; without washing (A), read-out: A. MAO-B inhibition effect): 82%; dopaminergic neuron survivability (TH expression), pre-treatment ([4]; 10 mg/kg oral): dopaminergic neuron survivability comparable to that of the control group; death of dopaminergic neurons, post-treatment [4, 7]: significantly decreased death of the neurons; recovery of dopaminergic neurons in the substantia nigra, post-treatment ([4]; 10 mg/kg oral, treated from day 3 after MPTP, substantia nigra, FIG. 2b): recovered the dopaminergic neurons in the substantia nigra to a level comparable to that of the control group not treated with MPTP; protection of dopaminergic neurons in the corpus striatum, 30-day administration [4, 8]: protected dopaminergic neurons to a level comparable to that of the control group not treated with MPTP; protection of dopaminergic neurons in the substantia nigra, 30-day administration ([4]; administration for 30 days, substantia nigra, FIG. 2c): protected neurons similarly to the control group; overall efficacy in the three tests on the MPTP mouse model ([4]; compared with selegiline and safinamide): superior efficacy as compared to selegiline and safinamide; efficacy (spike probability) compared with safinamide (APP/PS1 mouse [6]): higher than that of safinamide; spike probability depending on stimulus intensity (APP/PS1 mouse [6]; FIG. 3b): superior efficacy was observed |
| C[C@@H](NCc1ccc(-c2cccc(F)c2)cc1)C(N)=O [Example 14, methanesulfonate] | > 10 µM | > 100 µM |  |
| C[C@H](NCc1ccc(-c2ccccc2F)cc1)C(N)=O [Example 1, (S)-2-(((2′-fluorobiphenyl-4-yl)methyl)amino) propanamide methanesulfonate] | > 10 µM |  |  |
| C[C@H](NCc1ccc(-c2cccc(OC(F)(F)F)c2)cc1)C(N)=O [Example 10, (S)-2-(((3′-trifluoromethoxybiphenyl-4-yl)methyl)amino)propanamide methanesulfonate] | 0.216 µM | > 100 µM |  |
| C[C@H](NCc1ccc(-c2ccc(Cl)cc2)cc1)C(N)=O [Example 6, (S)-2-(((4′-chlorobiphenyl-4-yl)methyl)amino) propanamide methanesulfonate] | 0.416 µM | > 100 µM |  |
| CC(C)[C@@H](NCc1ccc(-c2ccc(C(F)(F)F)cc2)cc1)C(N)=O [Example 17, (R)-3-methyl-2-(((4′-trifluoromethylbiphenyl-4-yl)methyl)amino)butanamide methanesulfonate] | 4.07 µM | > 100 µM |  |
| COc1ccc(-c2ccc(CN[C@@H](C)C(N)=O)cc2)cc1 [Example 13, (S)-2-(((4′-methoxybiphenyl-4-yl)methyl)amino)propanamide methanesulfonate] | 1.06 µM | > 100 µM |  |
| CC(C)C[C@@H](NCc1ccc(-c2ccc(C(F)(F)F)cc2)cc1)C(N)=O [Example 18, (R)-4-methyl-2-(((4′-trifluoromethylbiphenyl-4-yl)methyl)amino)pentanamide methanesulfonate] | 5.3 µM | > 100 µM |  |
| C[C@H](NCc1ccc(-c2cccc(F)c2)cc1)C(N)=O [Example 2, (S)-2-(((3′-fluorobiphenyl-4-yl)methyl)amino) propanamide methanesulfonate] | > 10 µM |  |  |
